{
  "source": "paper PMC3214022",
  "about": "“Plasmodium falciparum Parasites Are Killed by a Transition State Analogue of Purine Nucleoside Phosphorylase in a Primate Animal Model” (PLoS ONE, 2011)",
  "key": {"[1]": {"test_system": "human erythrocytes", "experiment": "Polyamine and purine levels in cultured cells after BCX4945 treatment (HPLC, UPLC/MS/MS)", "format": "cell-based", "details": "uninfected erythrocytes, 5 µM BCX4945, 24 h", "protocol": "Polyamines from 0.5 M PCA extracts were analyzed as the dansyl-derivatives by HPLC/fluorescence on a Waters Millennium system. Protein concentration was determined with a bicinchoninic acid (BCA) protein assay kit according to the manufacturer's instructions (Pierce) using BSA as a standard. Data from biological samples were normalized to the protein content.\nSamples from blood cells, plasma and media were extracted and analyzed in duplicate. […] Samples were incubated for 20 min at 4 °C and neutralized with 5 M KOH at 10∶1 (v/v, HClO4/KOH) for 20 min at 4 °C. Plates were centrifuged (10 min at 4,000 rpm, 4°C) and supernatants were filtered through a MultiScreen® Filter Plate with Ultracel®-10 Membrane (Millipore). Metabolite and inhibitor levels were quantified by UPLC/MS/MS using a Xevo TQ mass spectrometer (Waters). […] Quantitative determination was performed in ESI positive-ion mode using multiple-reaction monitoring (MRM) mode. The ESI capillary voltage was 0.3 kV, source temperature was set at 150 °C and desolvation temperature at 450 °C. Data acquisition and analysis were carried out by MassLynx V4.1 and QuanLynx software (Waters). The concentration of the metabolites was calculated by interpolation of the observed analyte/internal standard peak-area ratio with the corresponding calibration curve."}, "[2]": {"test_system": "P. falciparum cultures", "experiment": "Inosine and hypoxanthine rescue assay", "format": "cell-based, Plasmodium falciparum", "details": "15 µM BCX4945, hypoxanthine or inosine up to 200 µM, 72 h", "protocol": "Synchronized, schizont stage parasites were washed in purine-free medium to remove excess hypoxanthine and inoculated into freshly drawn erythrocytes that had been washed and resuspended in purine-free medium. The schizont stage parasites were cultured in purine-free medium for 24 h to further reduce hypoxanthine inside the cell. […] Parasite viability was determined by DNA quantitation as described by Quashie and colleagues. For each condition, two independent experiments were carried out in triplicate."}},
  "data": [
    {"compound": "Nc1nc2c(CN3CC(O)C(CO)C3)c[nH]c2c(=O)[nH]1", "note": "(stereo not shown) [BCX4945, 4′-deaza-1′-aza-2′-deoxy-1′-(9-methylene)-Immucillin-G]", "values": [
      {"measurement": "Adenosine, cell pellet", "setting": "[1]", "value": "2.60±0.03 (0.2) nmoles/mg protein"},
      {"measurement": "Adenosine, supernatant", "setting": "[1]", "value": "0.6±0.2 (0.2) µM"},
      {"measurement": "BCX4945 level, cell pellet", "setting": "[1]", "value": "36±12 (0.07) nmoles/mg protein"},
      {"measurement": "BCX4945 level, supernatant", "setting": "[1]", "value": "4.0±0.2 (0.01) µM"},
      {"measurement": "Hypoxanthine, cell pellet", "setting": "[1]", "value": 0, "unit": "nmoles/mg protein"},
      {"measurement": "Hypoxanthine, supernatant", "setting": "[1]", "value": "0 (0.04) µM"},
      {"measurement": "Inosine, cell pellet", "setting": "[1]", "value": "37±6 (0.04) nmoles/mg protein"},
      {"measurement": "Inosine, supernatant", "setting": "[1]", "value": "8±3 (0.08) µM"},
      {"measurement": "MTA, cell pellet", "setting": "[1]", "value": 0, "unit": "nmoles/mg protein"},
      {"measurement": "MTA, supernatant", "setting": "[1]", "value": 0, "unit": "µM"},
      {"measurement": "MTI, cell pellet", "setting": "[1]", "value": 0, "unit": "nmoles/mg protein"},
      {"measurement": "MTI, supernatant", "setting": "[1]", "value": 0, "unit": "µM"},
      {"measurement": "Putrescine, cell pellet", "setting": "[1]", "value": 0, "unit": "nmoles/mg protein"},
      {"measurement": "Spermidine, cell pellet", "setting": "[1]", "value": "0.060±0.003", "unit": "nmoles/mg protein"},
      {"measurement": "Spermine, cell pellet", "setting": "[1]", "value": "0.030±0.002", "unit": "nmoles/mg protein"},
      {"measurement": "rescue of growth by purine supplementation", "setting": "[2]", "value": "Hypoxanthine, but not inosine, can bypass PNP inhibition"}
    ]}
  ]
}
